Experimental data taken from article PMC5556071, “ATR inhibition facilitates targeting of leukemia dependence on convergent nucleotide biosynthetic pathways” (Nature Communications, 2017).
Several values for one entry are separate records, joined by “and”; a condition that tells them apart may be missing. Equal values may be shown once.

Test system: CEM cells
Experiment: Non-targeted LC-MS metabolite profiling: percent [13C6]glucose labeling and relative metabolite levels
Format: cell-based, human
Details: CEM cells, 12 h following release from G1 arrest, replicates #1-#6
Source text: To further investigate the functions of dCK and ATR at the G1/S transition in CEM cells, a non-targeted liquid chromatography mass spectrometry (LC-MS) assay was used to determine the utilization of labeled [^13C6]glucose and [^13C9,^15N3]deoxycytidine, the main substrates for de novo and salvage nucleotide biosynthesis, respectively. Of the 166 metabolites identified in CEM cells treated with VE-822 and/or dCKi, 105 metabolites found in all four treatment groups contained glucose-derived ^13C atoms. […] These metabolites included intermediates such as rUTP, rCTP and rCDP in the de novo dCTP biosynthesis (Fig. 1d). […] However, several deoxyribonucleotides, including dCTP, were below the limit of detection of the non-targeted LC-MS approach, raising the concern that the sensitivity of this assay is not sufficient to measure the contribution of the salvage pathway or the ratio of de novo and salvage biosynthesis to these pools. To address this problem, a newly developed targeted MS assay was developed (Fig. 1e and Supplementary Fig. 3). In this assay, samples containing either extracted dNTPs or hydrolyzed DNA from labeled cells are separated by LC for detection by a triple quadrupole mass spectrometer using multiple reaction monitoring (LC-MS/MS-MRM). The first (Q1) and third (Q3) quadrupoles function as mass filters, while the second (Q2) quadrupole serves as a collision chamber (Fig. 1e). For instance, to profile the biosynthetic composition of deoxycytidine (dC) derived from hydrolyzed DNA or dCTP, an intact, protonated dC ion is selected in Q1, followed by fragmentation of the glycosidic bond, which releases protonated cytosine in Q2, that is filtered in Q3 and detected to generate an ion chromatogram. The peak areas for the ion chromatograms of salvage [^13C9,^15N3]dC (red trace), de novo [^13C5]dC (black trace, from [^13C6]glucose) and unlabeled dC (gray trace) (Fig. 1e) are used to determine the relative contributions of the de novo and salvage routes both to dCTP pools and to DNA-incorporated dCTP.
Cells were transferred into RPMI-1640 without glucose and supplemented with 10% dialyzed FBS (Gibco) containing the following labeled substrates: precursors for de novo [U-^13C6]glucose (Sigma-Aldrich, 389374) at 11 mM; precursors for purine salvage [U-^13C10,^15N5]dA (Cambridge Isotopes, CIL 3896), [^15N5]dA (Cambridge Isotopes, NLM-3895) and [^15N5]dG (Cambridge Isotopes, NLM-3899) at 5 µM or as indicated; and precursors for pyrimidine salvage: [U-^13C9,^15N3]dC (Silantes, 124603602) and [U-^13C10,^15N2]dT (Cambridge Isotopes, CNLM-3902) at 5 µM and [^15N2]orotate (Cambridge Isotopes, NLM-1048) at indicated concentrations. The cells were incubated for 12 h or as indicated before sample collection and processing. […]
Non-targeted LC-MS metabolic assays. 1 x 10^6 cells were washed with ice-cold 150 mM ammonium acetate twice before adding 1 mL of ice-cold 80% methanol with 10 nM norvaline as an internal standard. After vigorous vortexing, samples were centrifuged at maximum speed, the aqueous layer was transferred to a glass vial and the metabolites were dried under vacuum. Metabolites were resuspended in 50 μL 70% acetonitrile (ACN) and 5 μL of this solution used for the mass spectrometer-based analysis. The analysis was performed on a Q Exactive (Thermo Scientific) in polarity-switching mode with positive voltage 4.0 kV and negative voltage 4.0 kV. The mass spectrometer was coupled to an UltiMate 3000RSLC (Thermo Scientific) UHPLC system. Mobile phase A was 5 mM ammonium acetate (NH4AcO), pH 9.9, B was acetonitrile and the separation achieved on a Luna […] NH2 100 A column (150 × 2.0 mm, Phenomenex). The flow was 200 μL/min, and the gradient ran from 15% A to 95% A in 18 min, followed by an isocratic step for 9 min and re-equilibration for 7 min. Metabolites were detected and quantified as area under the curve based on retention time and accurate mass (≤ 3 p.p.m.) using the TraceFinder 3.1 (Thermo Scientific). Relative amounts of […]

[1] = metabolite Asp (C00049), listed as V
[2] = metabolite Carnitine (C00318), listed as V
[3] = metabolite G3P (KEGG C00118), listed as V
[4] = metabolite G6P-F6P (KEGG C00668), listed as V
[5] = metabolite GABA (KEGG C00334), listed as V
[6] = metabolite GDP (KEGG C00035), listed as V
[7] = metabolite GMP (KEGG C00144), listed as V
[8] = metabolite GSH (KEGG C00051), listed as V
[9] = metabolite GSSG (KEGG C00127), listed as V
[10] = metabolite GTP (KEGG C00044), listed as V
[11] = metabolite Glc (KEGG C00031), listed as V
[12] = metabolite GlcA (KEGG C00257), listed as V
[13] = metabolite GlcN-6P (KEGG C00352), listed as V
[14] = metabolite GlcNAc-6P (KEGG C00357), listed as V

CNCc1ccc(-c2cc(-c3nc(-c4ccc(S(=O)(=O)C(C)C)cc4)cnc3N)on2)cc1 [VE-822]
Relative level, Asn (metabolite Asn (C00152), listed as V): 1.3 and 1.4 (2×) and 0.9 (3×) | Glucose labeling, Asp [1]: 22.64% and 22.44% and 22.12% and 21.45% and 21.35% and 21.96% | Relative level, Asp [1]: 1.8 and 1.3 and 1.4 and 1.5 and 0.9 and 1.0 | Glucose labeling, C (metabolite C (D07769), listed as V): 0.35% and 0.24% and 0.32% and 0.34% and 0.00758% and 0.36% | Relative level, C (metabolite C, listed as V): 1.9 (2×) and 2.0 and 1.8 and 2.3 and 2.5 | Glucose labeling, Carnitine [2]: 0.0372% and 0.00375% and 0.00443% and 0.00282% and 0.06% and 0.00331% | Relative level, Carnitine [2]: 0.9 and 1.0 (2×) and 0.7 (2×) and 0.8 | Glucose labeling of G3P [3]: 58.87% and 0.0369% (3×) and 100.00% (2×) | Relative level of G3P [3]: 0.952 and 0.6 (2×) and 0.2 and 0.456 | Glucose labeling of G6P-F6P [4]: 88.15% and 86.27% and 90.17% and 83.23% and 85.62% and 81.44% | Relative level of G6P-F6P [4]: 4.7 and 2.5 and 3.5 and 1.9 and 1.1 and 1.0 | Glucose labeling of GABA [5]: 0.05% and 0.04% and 0.0737% (4×) | Relative level of GABA [5]: 0.9 (2×) and 1.0 and 0.4 (2×) and 0.5 | Glucose labeling of GDP [6]: 66.45% and 57.13% and 62.54% and 65.67% and 61.42% and 68.88% | Relative level of GDP [6]: 2.9 and 0.7 and 1.2 and 1.1 and 0.647 and 0.351 | Glucose labeling of GMP [7]: 67.56% and 73.95% and 70.72% and 64.86% and 56.63% and 63.18% | Relative level of GMP [7]: 3.6 and 1.9 (2×) and 2.2 and 0.527 and 0.431 | Glucose labeling of GSH [8]: 22.37% and 21.90% and 25.59% and 18.14% and 18.31% and 18.93% | Relative level of GSH [8]: 1.4 and 1.1 and 0.9 and 0.6 and 0.557 and 0.5 | Glucose labeling of GSSG [9]: 41.97% and 38.91% and 39.41% and 36.66% and 34.27% and 31.20% | Relative level of GSSG [9]: 1.0 (2×) and 0.9 and 0.7 and 0.553 and 0.533 | Glucose labeling of GTP [10]: 66.00% and 75.98% and 68.76% and 65.13% and 72.51% and 69.15% | Relative level of GTP [10]: 1.6 and 0.4 (2×) and 0.8 and 0.9 and 0.378 | Glucose labeling of Glc [11]: 85.14% and 89.26% and 81.87% and 76.15% and 74.50% and 90.17% | Relative level of Glc [11]: 1.6 and 2.4 and 1.4 and 0.9 (2×) and 3.6 | Glucose labeling of GlcA [12]: 10.98% and 10.19% and 12.71% and 10.94% and 11.47% and 12.23% | Relative level of GlcA [12]: 0.9 and 0.6 and 0.566 and 0.5 and 0.3 (2×) | Glucose labeling of GlcN (metabolite GlcN (KEGG C00329)): 0.18% | Relative level of GlcN (metabolite GlcN (KEGG C00329), listed as V): 0.9 and 1.4 and 1.6 and 1.1 and 0.8 and 1.7 | Glucose labeling of GlcN-6P [13]: 6.56% and 5.43% and 4.48% and 7.20% and 4.32% and 4.29% | Relative level of GlcN-6P [13]: 0.65 and 0.8 and 0.6 and 0.7 (2×) and 0.653 | Glucose labeling of GlcNAc-6P [14]: 39.94% and 9.75% and 47.59% and 56.84% and 49.88% and 50.30% | Relative level of GlcNAc-6P [14]: 0.8 and 0.37 and 0.9 and 1.0 and 0.533 and 0.4
